The results in this text go back to patent US11370775B2, “Substituted benzimidazole derivatives as D-amino acid oxidase (DAAO) inhibitors” (NATIONAL TAIWAN UNIVERSITY, priority 2016, dated 2022).

For one assay, the target named is T1, porcine kidney DAO (Sus scrofa, UniProt P00371).
T1 construct: purchased Sigma-Aldrich; host or cells: porcine kidney
Description: pkDAO enzymatic assay (porcine kidney DAO IC50 assay). The class given is biochemical. The settings on record: D-alanine substrate, pH 8.3, 37° C., without FAD. On the procedure:
The DAAO enzymatic activity assay was modified according to the report of Oguri et al (Oguri, S., Screening of d-amino acid oxidase inhibitor by a new multi-assay method. Food chemistry 2007, 100 (2), 616). The DAAO activity was measured by using substrate D-alanine reaction produced hydrogen peroxide (H2O2) to further react with 3-(4-hydroxyphenyl) propionic acid (HPPA). The HPPA were oxidized by H2O2 and peroxidase to become the fluorogenic dimer which was measured to represent the activity of DAAO.
For porcine kidney DAO IC50 assay, the DAO substrate was prepared in 50 mM D-alanine (dissolved in 0.2 M Tris-HCl buffer, pH 8.3). A 100 μl of D-alanine solution was mixed with 4 μl (in 100% dimethyl sulfoxide, DMSO) of different concentrations of candidate compounds shown in tables below ranging from 48.83 μM, 97.66 μM, 195.31 μM, 390.63 μM, 781.25 μM, 1.56 mM, 3.13 mM, 6.25 mM, 12.50 mM, 25.00 mM, and 50.00 mM, with a final DMSO concentration of 0.167% in each reaction concentration. 10 μl of D-alanine and candidate compound mixture was incubated with 220 μl of Reaction Master Mix in black 96 well plate at 37° C. for 5 minutes. The Reaction Master Mix contained 110 μl of 5 U/mL porcine kidney DAO (Sigma-Aldrich, USA) solution (dissolved with 0.2 M Tris-HCl buffer, pH 8.3), 1.1 mL of 15 U/mL peroxidase solution (dissolved with 0.2 M Tris-HCl buffer, pH 8.3), 1.1 mL of 20 mM HPPA solution (dissolved with 0.2 M Tris-HCl buffer, pH 8.3), and 22 ml of 2 M Tris-HCl buffer (pH 8.3) for 110 reaction assays.
Fluorescence intensity (Fs) was measured at 405 nm by irradiation excitation at 320 nm. The higher the DAO enzymatic activity was, the higher the fluorescence intensity. The fluorometric inhibition indicator (Fi) was obtained from the following equation: Fi=(Fs-FDrug)/(FDMSO), where the fluorescent drug blank (FDrug) was measured in the drug mixture solution (using 0.2 M Tris HCl buffer, pH 8.3, without D-alanine). A DMSO blank (FDMSO) was measured under a 100% DMSO solution.
Although FAD is generally included in the reaction mixture in the D-amino acid oxidase assay since it easily dissociates from the holoenzyme, the present method was performed without FAD. The inhibitory effect of DAO inhibitors was compared by using inhibitory concentrations leading to 50% inhibition of DAAO activity (IC50). The IC50 values were calculated by nonlinear regression model using GraphPad Prism, version 5(GraphPad Software, Inc., La Jolla, Calif.).

Assay [1] has as its target T2, DAO in SK-N-SH neuroblastoma cells (Homo sapiens, UniProt P14920).
T2 construct: endogenous in cells; host or cells: SK-N-SH neuroblastoma cells (ATCC)
The assay can be described thus: Cell-based DAO assay in SK-N-SH cells. Also noted: key to Relative DAO activity normalize to DMSO at Final Conc. 100 uM / Relative DAO activity normalize to DMSO at Final Conc. 10 uM: fraction of DMSO-control DAO activity (1 = DMSO). The settings on record: SK-N-SH 1.25*10^5 cells/well, drug treated for 3.5 hr; for IC50: 50 mM D-serine. As for the experimental part: The SK-N-SH neuroblastoma cell line was purchased from American Type Culture Collection (ATCC). It was cultured in MEM media (Invitrogen/GIBCO, Rockville, Md.) supplemented with 10% fetal bovine serum, 1×NEAA (Invitrogen/GIBCO) at 37° C. with 5% CO2 in a humidified atmosphere. Cells were trypsinized and plated into a black 96-well plate (NUNC No. 237108) at a density of 125,000 cells/well in 50 μl before cell-based DAO assay.
The cellular DAO activity assay was using a method modified according to the report of Brandish et al. (Brandish, P. E., et al., A cell-based ultra-high-throughput screening assay for identifying inhibitors of D-amino acid oxidase. J Biomol Screen, 2006. 11(5): p. 481-7). SK-N-SH cells were suspended in assay buffers of HANKS buffer solution (Invitrogen/GIBCO No. 14025-092) with 20 mM HEPES. D-serine of (final concentration 50 mM) was added in each well as the substrate for DAO enzyme. The Amplex Red Hydrogen Peroxide/Proxidase Assay Kit (Molecular Probes/Invitrogen, cat. A22188) was used to measure H2O2 production which diffused across the cell membrane into the assay medium after DAO reaction. After seeding cells into black 96-well plate (Nunc No. 237108, Denmark), 50 μl of SK-N-SH cells (125,000 cells/well) was mixed with 50 μl drug solution (2.5 fold of interesting final concentration) and incubate at 37° C. with 5% CO2 in a humidified atmosphere for 30 minutes. After 30 minutes later, 25 μl of a 5 fold mixture containing D-serine, horseradish peroxidase (HRP), and Amplex Red was added into wells containing 100 μl of cell-drugs mixture and incubated at 37° C. with 5% CO2 in a humidified atmosphere for 3 hours. The final concentration of DMSO is below 1%. The fluorescence signal was then detected in SpectraMax M2e microplate reader (Molecular Devices, USA) with excitation at 544 nm and emission at 590 nm. The optimized assay buffer contained a final concentration of 50 mM D-serine, 0.625 units HRP, and 50 μM Amplex Red in a 125 μl assay volume.

Assay [2] has as its system MK-801-induced hyperlocomotion in C57BL/6 mice. Description: Open field, MK-801-induced hyperlocomotion. The class given is in vivo. The text has this: (§1) The NMDA-receptor antagonist MK-801-induced negative or cognitive deficits in C57BL/6 mice were in a well-established drug-induced schizophrenia mouse model and as a useful pharmacological animal model to identify if the RS-D7, its analog and its prodrug improve the symptoms through the NMDA receptor.
(§2) All wild-type (WT) mice used in this study were backcrossed onto a C57BL/6J background from the Laboratory Animal Center of National Taiwan University Hospital, and all behavioral examinations were conducted in WT mice. For acclimatizing to laboratory conditions, the mice were allowed free access to food and water and were housed in groups with a 12 hours light-dark cycle in a temperature and humidity controlled room of the Psychology Department, National Taiwan University. All animals within the age of 3 months were housed individually one week before experiment testing with food and water available ad libitum. In the beginning of the experiments, the mice were handled and weighted daily at least 1 week before the behavioral experiments. The entire animal procedures were performed according to protocols approved by the Animal Care and Use Committee established by the National Taiwan University.
(§3) MK-801 was dissolved in saline and administered at a volume of 0.01 ml/g body weight. RS-D7, Drug 12083 (analog of RS-D7) and was freshly dissolved in 1% CMC to the concentration of 2 mg/ml before usage. Prodrug 28095 was freshly dissolved in NMP:HP-beta-CD:H2O (5:25:70) to the concentration of 2 mg/ml before usage. All animals were given vehicle (saline) or MK-801 (0.2 mg/kg, i.p.) 25 minutes before the behavioral experiments. Both vehicle (1% CMC or NMP:HP-beta-CD:H2O) and experimental groups (RS-D7, Drug 12083 or Prodrug 28095) were treated after 5 minutes MK-801 administration with the appropriate dose via P.O. injections (at a volume of 0.01 ml/g body weight).
(§4) For investigating the treatment effect of RS-D7 for negative and cognitive symptoms, a series of three behavioral tests (run from the first to the third week), which included open field, sucrose preference test and prepulse inhibition were performed in sequence with a 1-week interval between tests.
To assess spontaneous locomotor activity, each subject was placed into the center of an open-field apparatus (25.40*25.40*40.64 cm^3, Coulbourn Instruments, Whitehall, Pa., USA) under dim lighting condition (60 lx). Motor activity parameters (including total travel distance and travel distance per 10 minutes) were monitored and recorded over a 60 minutes period by using Smart video tracking software (Panlab, Harvard apparatus, US). For comparing the treatment effects of different treatment groups, the percentage change of rescue effect on MK-801-induced hyperlocomotion was calculated using the following formula: %=(rescue effect of drug−MK-801 effect)×100%/MK-801 effect.

Assay [3] relates to MK-801-induced anhedonia in C57BL/6 mice. Description: Sucrose preference test, MK-801-induced anhedonia. Type of assay: in vivo.
Text: as §1, §2, §3, §4
To assess the anhedonia, one of the negative symptoms of schizophrenia, all mice underwent 4-day testing. In the beginning of the sucrose preference, all mice were deprived of water for 23 hours in all the experiment from one day before the first day. On the first day, each mouse was given free access to 2 identical bottles with water for 1 hour. Then, the 2 identical bottles were replaced that one filled with 1% (wt/vol) sucrose solution and the other with water on the second day. On the third and fourth day, each mouse was received MK-801 and RS-D7 treatment before the experiment, and also free accessed to bottles for 1 hour. After the experiment, the 2 bottles were weighted to measure the 1-hour consumption of sucrose solution and water. The sucrose preference percentage (SPP) was calculated using the following formula: % SPP=sucrose solution consumption (g)×100%/[water consumption (g)+sucrose solution consumption (g)].

Assay [4] deals with MK-801-induced PPI deficit in C57BL/6 mice. Description: Prepulse inhibition, MK-801-induced PPI deficit. Type of assay: in vivo. The settings on record: MK-801 0.2 mg/kg i.p.
Text: as §1, §2, §3, §4
To assess the sensorimotor gating function, each mouse was tested with the SR-LAB startle apparatus (San Diego Instruments, San Diego, Calif., USA). The background noise was 72 dB during testing. Each session was initiated with a 5 minutes acclimatization period followed by 64 trials, consisting of pulse-alone (P-alone) trials, prepulse pulse (pp+P) trials, and no stimulation (nostim) trials. A P-alone trial was a 120 dB white noise burst of 40 msec. In the pp+P trials, the 120 dB pulse was preceded (by 100 msec) by a 20 msec of white noise prepulse burst of 78 dB (PP6), 82 dB (PP10), or 90 dB (PP18). The nostim trials consisted of background noise only. The session began and ended with a block of six presentations of the P-alone trial. Between these two blocks, the rest of the 52 trials were performed pseudorandomly and separated by intertrial intervals of 15 sec on average (varying between 10 and 20 sec). PPI was calculated as a percentage of the startle response using the formula: % PPI=100× [(P-alone score)-(pp+P score)]/(pulse-alone score), where the pulse-alone score was the average of the pulse-alone values from the in-between block of 52 trials.

T2 sequence (P14920 whole entry): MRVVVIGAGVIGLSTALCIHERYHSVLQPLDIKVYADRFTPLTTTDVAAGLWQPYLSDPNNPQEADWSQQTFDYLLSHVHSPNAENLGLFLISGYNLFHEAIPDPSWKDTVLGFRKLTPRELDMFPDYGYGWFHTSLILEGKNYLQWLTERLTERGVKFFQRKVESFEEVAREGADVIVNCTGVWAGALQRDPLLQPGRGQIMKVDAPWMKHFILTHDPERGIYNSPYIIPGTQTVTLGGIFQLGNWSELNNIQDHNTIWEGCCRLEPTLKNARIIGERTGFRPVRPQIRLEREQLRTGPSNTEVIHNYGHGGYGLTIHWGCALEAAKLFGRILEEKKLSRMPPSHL
T1 sequence (P00371 whole entry): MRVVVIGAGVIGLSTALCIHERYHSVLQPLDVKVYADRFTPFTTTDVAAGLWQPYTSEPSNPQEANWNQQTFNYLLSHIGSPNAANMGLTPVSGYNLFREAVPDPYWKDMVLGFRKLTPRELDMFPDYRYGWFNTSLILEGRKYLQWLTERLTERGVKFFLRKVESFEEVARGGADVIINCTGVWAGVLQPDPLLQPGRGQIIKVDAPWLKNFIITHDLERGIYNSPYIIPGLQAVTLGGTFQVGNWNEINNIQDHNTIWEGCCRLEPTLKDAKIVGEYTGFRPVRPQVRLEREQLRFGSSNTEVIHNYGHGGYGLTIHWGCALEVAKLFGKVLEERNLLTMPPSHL

The term IC50 denotes the concentration that gives 50% inhibition. Take `COc1c(C)cnc(C[S+]([O-])c2nc3cc(OC(=O)C4CC4)ccc3[nH]2)c1C` (centres unmarked) [compound 28092, 2-(((4-methoxy-3,5-dimethylpyridin-2-yl)methyl)sulfinyl)-1H-benzo[d]imidazol-5-yl cyclopropanecarboxylate]: it took 46.7 µM to reach half-maximal inhibition against porcine kidney DAO (IC50). In addition, in assay [1], the “Relative DAO activity normalize to DMSO at Final Conc. 10 uM” value amounted to 0.94, the “Relative DAO activity normalize to DMSO at Final Conc. 100 uM” value worked out at 0.58 and the IC50 was 136 µM.

At porcine kidney DAO, `COc1c(C)cnc(C[S+]([O-])c2nc3cc(OC(=O)Cc4ccccc4)ccc3[nH]2)c1C` (centres unmarked) [compound 28094, 2-(((4-methoxy-3,5-dimethylpyridin-2-yl)methyl)sulfinyl)-1H-benzo[d]imidazol-5-yl 2-phenylacetate] yielded an IC50 of 21.1 µM. In assay [1], the “Relative DAO activity normalize to DMSO at Final Conc. 10 uM” value amounted to 1.10, the “Relative DAO activity normalize to DMSO at Final Conc. 100 uM” value amounted to 0.58 and half-maximal inhibition (IC50) required 121 µM.

Regarding `COc1c(C)cnc(C[S+]([O-])c2nc3cc(OC(=O)CC(C)CC(C)(C)C)ccc3[nH]2)c1C` (centres unmarked) [compound 28095, 2-(((4-methoxy-3,5-dimethylpyridin-2-yl)methyl)sulfinyl)-1H-benzo[d]imidazol-5-yl 3,5,5-trimethylhexanoate], the “Effect on MK-801 induced hyperlocomotion (open field)” value in assay [2] (100 mg/kg P.O., MK-801 0.2 mg/kg i.p., mice) was “alleviated MK-801 induced hyperlocomotion”. For the same molecule, the “Effect on MK-801-induced hyperlocomotion (FIG. 1)” value in assay [2] (different dosages, compared to the MK-801 group) is recorded as “can rescue the MK-801-induced hyperlocomotion”. Also, the “Effect on MK-801 induced anhedonia (sucrose preference)” value in assay [3] (200 mg/kg P.O., MK-801 0.2 mg/kg i.p., mice) is “normalized MK-801 induced anhedonia”. The “Effect on anhedonia after acute MK-801 injection (FIG. 2)” value in assay [3] (different dosages) is listed as “rescue the anhedonia after acute MK-801 injection”. Moreover, the “Effect on MK-801 induced PPI deficit” value in assay [4] (100 mg/kg P.O.) and in assay [4] (200 mg/kg P.O.) was “significantly alleviated MK-801 induced PPI deficit” in each case.
